Read-outs that look alike come from different tables or passages of the source.
Key:
ducksalad = assay: Test C flooded paddy test; type: in vivo, Heteranthera limosa; details: Flood
Procedure, shortened: (§1)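 2-leaf stage; flood 3 cm over soil; compound into paddy water; depth held; greenhouse 13–15 d; visual % control vs untreated (0 = none, 100 = complete); "-" = not tested.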

velvetleaf = assay: Test A pre-/postemergence herbicide test; type: in vivo, Abutilon theophrasti; details: for pest or weed control at 500 g/ha: 500 g ai/ha
Procedure, shortened: (§2)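 Directed soil spray to seeded pots (preemergence) or spray onto one- to two-leaf seedlings 2–10 cm tall (postemergence); loam/sand substrate throughout. Evaluated visually after about 10 days against untreated plants, 0 = no effect, 100 = complete control.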

kochia [1] = assay: Test C pre-/postemergence herbicide test; type: in vivo, Kochia scoparia; details: Postemergence
Procedure, shortened: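 Two application timings ran in parallel with identically formulated test chemicals (non-phytotoxic solvent, surfactant included): spray on seeded loam–sand soil, and spray on emerged plants 2 to 18 cm high. Evaluation at 13 to 15 days compared each species with controls, rated from 0 up to 100.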

rice = assay: Test C flooded paddy test; type: in vivo, Oryza sativa; details: Flood
Procedure, shortened: as §1

barnyardgrass = assay: Test C flooded paddy test; type: in vivo, Echinochloa crus-galli; details: Flood
Procedure, shortened: as §1

blackgrass = assay: Test A postemergence herbicide test; type: in vivo, Alopecurus myosuroides
Procedure, shortened: (§3)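 Young potted plants in a loam–sand mix, one- to two-leaf stage and 2–10 cm tall, receive the test chemical postemergence and stay in a greenhouse for approximately 10 days. Injury is then judged by eye against untreated plants, scored 0 (none) to 100 (complete control).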

galium = assay: Test A postemergence herbicide test; type: in vivo, Galium aparine; details: for Plant response rating, Galium: 125 g ai/ha; for Galium plant response rating (0 to 100 scale, 0 is no effect, 100 is complete control): 500 g ai/ha
Procedure, shortened: as §3

kochia [2] = assay: Test A pre-/postemergence herbicide test; type: in vivo, Kochia scoparia
Procedure, shortened: as §2

[3] = 31 g ai/ha, scale of 0 to 100 where 0 is no effect and 100 is complete control, 13 to 15 days
[4] = 62 g ai/ha, scale of 0 to 100 where 0 is no effect and 100 is complete control, 13 to 15 days
[5] = 125 g ai/ha, scale of 0 to 100 where 0 is no effect and 100 is complete control, 13 to 15 days
[6] = 125 g ai/ha, scale 0 to 100 (0 no effect, 100 complete control)
[7] = 250 g ai/ha, scale 0 to 100 (0 no effect, 100 complete control)
[8] = 250 g ai/ha, scale of 0 to 100 where 0 is no effect and 100 is complete control, 13 to 15 days
[9] = 125 g ai/ha, 0 to 100 scale, 0 is no effect, 100 is complete control
[10] = 0 to 100 scale, 0 is no effect, 100 is complete control
[11] = 31 g ai/ha, scale 0 to 100 (0 no effect, 100 complete control)
[12] = 62 g ai/ha, scale 0 (no effect) to 100 (complete control)
[13] = 125 g ai/ha, visual rating, 0 to 100 scale, 0 no effect, 100 complete control, approximately 10 days, preemergence
[14] = Postemergence, 125 g ai/ha, 0 to 100 scale, 0 is no effect, 100 is complete control
[15] = preemergence, 500 g ai/ha, 0 to 100 scale, 0 is no effect and 100 is complete control

Structure (SMILES) | Plant response rating, Ducksalad (ducksalad; [5]) | Plant response rating, Kochia (kochia [1]; [6]) | Plant response rating, Kochia (kochia [1]; [7]) | Plant response rating, Rice (rice; [5]) | Plant response rating, Barnyardgrass (barnyardgrass; [5]) | Plant response rating, Ducksalad (ducksalad; [8]) | Plant response rating, Ducksalad (ducksalad; 500 g ai/ha, scale 0 to 100) | Plant response rating, Ducksalad (ducksalad; 1000 g ai/ha, scale 0 to 100) | Plant response rating, Blackgrass (blackgrass; [9]) | Blackgrass plant response rating (0 to 100 scale, 0 is no effect, 100 is complete control) (blackgrass; 500 g ai/ha) | Plant response rating, Galium (galium; [10]) | Galium plant response rating (0 to 100 scale, 0 is no effect, 100 is complete control) (galium) | Plant response rating, Kochia (kochia [1]; [11]) | Plant response rating, Kochia (kochia [1]; [12]) | Plant response rating, Rice (rice; [8]) | Plant response rating, Rice (rice; 500 g ai/ha, scale 0 to 100) | Plant response rating, Rice (rice; 1000 g ai/ha, scale 0 to 100) | Plant response rating, Barnyardgrass (barnyardgrass; [8]) | Plant response rating, Barnyardgrass (barnyardgrass; 500 g ai/ha, scale 0 to 100) | Plant response rating, Barnyardgrass (barnyardgrass; 1000 g ai/ha, scale 0 to 100) | also measured
O=C1NCC(c2ccc(C(F)(F)F)cc2)C1C(=O)Nc1cccc(F)c1F (stereo not drawn) [Compound 80, N-(2,3-difluorophenyl)-2-oxo-4-[4-(trifluoromethyl)phenyl]-3-pyrrolidinecarboxamide] | 100 | 65 | 65 | 0 | 0 |  |  |  |  |  |  |  |  |  |  |  |  |  |  |  | Plant response rating, Ducksalad (ducksalad; [3]): 70; Plant response rating, Ducksalad (ducksalad; [4]): 70; Plant response rating, Ducksalad (ducksalad; 250 g ai/ha, scale 0 to 100): 100; pest or weed control at 125 g/ha (velvetleaf; Abutilon theophrasti, post-emergence, 240 h, Postemergence, 125 g ai/ha, 0 to 100 scale, 0 no effect, 100 complete control, read-out: Plant response rating, Velvetleaf): 10%; pest or weed control at 500 g/ha (velvetleaf; Abutilon theophrasti, post-emergence, 240 h, Postemergence, 0 to 100 scale (0 no effect, 100 complete control), read-out: Plant response rating, Velvetleaf): 60%; pest or weed control at 500 g/ha (velvetleaf; Abutilon theophrasti, pre-emergence, 240 h, preemergence, 0 to 100 scale, read-out: Plant response rating, Velvetleaf): 30%; Velvetleaf plant response rating (velvetleaf; Preemergence, 125 g ai/ha, visual rating on 0 to 100 scale (0 no effect, 100 complete control)): 0; Plant response rating, Kochia (kochia [1]; 31 g ai/ha, scale 0 (no effect) to 100 (complete control)): 30; Plant response rating, Kochia (kochia [1]; 62 g ai/ha, scale 0 to 100 (0 no effect, 100 complete control)): 55; Plant response rating, Rice (rice; [3]): 0; Plant response rating, Rice (rice; [4]): 0; Plant response rating, Rice (rice; 250 g ai/ha, scale 0 to 100): 0; Plant response rating, Barnyardgrass (barnyardgrass; [3]): 0; Plant response rating, Barnyardgrass (barnyardgrass; [4]): 0; Plant response rating, Barnyardgrass (barnyardgrass; 250 g ai/ha, scale 0 to 100): 20
O=C1NC[C@H](c2cccc(C(F)(F)F)c2)[C@H]1C(=O)Nc1ccccc1F [Compound 204, (3R,4S)—N-(2-fluorophenyl)-2-oxo-4-[3-(trifluoromethyl)phenyl]-3-pyrrolidinecarboxamide] | 50 | 40 | 40 | 0 | 50 | 95 | 100 | 100 | 70 | 80 | 50 | 60 | 10 | 30 | 0 | 0 | 10 | 70 | 75 | 80 | Plant response rating, Kochia (kochia [2]; [13]): 0; Plant response rating, Kochia (kochia [2]; [14]): 20; Kochia plant response rating (0 to 100 scale, 0 is no effect, 100 is complete control) (kochia [2]; Postemergence, 500 g ai/ha): 60; Plant response rating, Kochia (kochia [2]; [15]): 80
O=C1NC[C@H](c2cccc(C(F)(F)F)c2)[C@H]1C(=O)Nc1cccc(F)c1F [Compound 206] | 90 | 30 | 70 | 0 | 35 | 100 | 100 | 100 | 70 | 80 | 70 | 80 | 50 | 70 | 0 | 15 | 15 | 60 | 75 | 85 | Plant response rating, Kochia (kochia [2]; [13]): 70; Plant response rating, Kochia (kochia [2]; [14]): 70; Kochia plant response rating (0 to 100 scale, 0 is no effect, 100 is complete control) (kochia [2]; Postemergence, 500 g ai/ha): 70; Plant response rating, Kochia (kochia [2]; [15]): 80
O=C1NCC(c2cccc(OC(F)F)c2)C1C(=O)Nc1cccc(F)c1F (stereo not drawn) [Compound 224] | 80 | 50 | 70 | 0 | 40 | 100 |  |  | 60 | 70 | 70 | 70 | 0 | 40 | 20 |  |  | 60 |  |  | Plant response rating, Ducksalad (ducksalad; [3]): 0; Plant response rating, Ducksalad (ducksalad; [4]): 40; Plant response rating, Rice (rice; [3]): 0; Plant response rating, Rice (rice; [4]): 0; Plant response rating, Barnyardgrass (barnyardgrass; [3]): 0; Plant response rating, Barnyardgrass (barnyardgrass; [4]): 20; Plant response rating, Kochia (kochia [2]; [13]): 80; Plant response rating, Kochia (kochia [2]; [14]): 80; Kochia plant response rating (0 to 100 scale, 0 is no effect, 100 is complete control) (kochia [2]; Postemergence, 500 g ai/ha): 90; Plant response rating, Kochia (kochia [2]; [15]): 90
O=C1NCC(c2ccc(F)c(F)c2)C1C(=O)Nc1ccc(F)c(F)c1F (stereo not drawn) [Compound 346] | 95 | 45 | 40 | 0 | 30 | 100 | 100 | 100 |  |  |  |  | 45 | 50 | 0 | 0 | 0 | 45 | 65 | 70 | Plant response rating, Blackgrass (blackgrass; 125 g ai/ha, visual rating on 0 to 100 scale (0 no effect, 100 complete control), approx. 10 days): 20; Plant response rating, Blackgrass (blackgrass; 500 g ai/ha, 0 to 100 scale (0 no effect, 100 complete control)): 50; Plant response rating, Galium (galium; visual rating on 0 to 100 scale (0 no effect, 100 complete control), approx. 10 days): 30; Plant response rating, Kochia (kochia [2]; Postemergence, 125 g ai/ha, visual rating on 0 to 100 scale (0 no effect, 100 complete control), approx. 10 days): 0; Plant response rating, Kochia (kochia [2]; Preemergence, 125 g ai/ha, 0 to 100 scale where 0 is no effect and 100 is complete control): 0; Kochia plant response rating (kochia [2]; Preemergence, 500 g ai/ha, visual rating on 0 to 100 scale (0 no effect, 100 complete control)): 80

— patent US10294202B2, “Pyrrolidinones as herbicides” (FMC Corporation, priority 2013, dated 2019)
